System: mice with induced myocardial infarction
Experiment: Post-MI chronic heart failure in mice, invasive hemodynamics with isoproterenol
Assay type: in vivo, mouse
Conditions: 4 weeks of treatment
Description: Myocardial infarction was induced in 10-12 week C57B/6 wild-type mice and after 2 weeks echo cardiograms were used to assess the MI severity in each mouse. Mice were randomized for treatment based on similarity and severity of the induced infarct. The mice were started with either vibegron or vehicle (1-3 doses) administered by continuous infusion using 2 week minipumps (Azlet Corp.) that were filled with the appropriate dose and implanted subcutaneously on the back of each animal in the region of the scapula. The minipumps were replaced with new minipumps in the same location at the 2 week time point and dosed for 4 weeks in total. Cardiac function was assessed by echocardiography (Echo) at 0, 2, 4, and 6 weeks. Some mice were subjected to terminal catheterization to measure hemodynamic pressures and adrenergic responsiveness. At the end of the 4 week treatment period (i.e., 6 weeks after MI was induced), cardiac function was measured, mice were sacrificed for histology of the heart, and terminal blood was collected to confirm the serum concentration of vibegron.
• 1. Day 0 (after 1-2 weeks acclimation)—pre-surgery Echo • 2. Perform LAD Ligation (MI) or Sham procedure • 3. Day 14—Echo and randomly assign groups • 4. Day 14—begin administration of vehicle and drug for 4 weeks • 5. Day 28—Echo (operator blinded to groups)—change pumps for another 2 week dosing • 6. Day 42—Echo (operator blinded to groups) • 7. Day 42—Some were used for hemodynamics and ISO dose response and all animals sacrificed. Some were used for histology and some for RNA/Protein analysis. Blood was also collected at the time of sacrifice to determine serum concentrations.
Invasive Measurements: The hemodynamic measurements occurred at the end of the study as described in the protocols above. […] Hemodynamic measurements were collected and analyzed for cardiac function.
The maximum (dp/dt max) rate of pressure change during contraction and minimum (dp/dt min) rate of pressure change during relaxation of the left ventricle were measured with increasing doses of isoproterenol in combination with vibegron. […]

In the case of `O=C(Nc1ccc(C[C@@H]2CC[C@H]([C@H](O)c3ccccc3)N2)cc1)[C@@H]1CCc2nccc(=O)n21` [Vibegron, (6S)—N-[4-[[(2S,5R)-5-[(R)-hydroxy(phenyl)methyl]pyrrolidin-2-yl]methyl]phenyl]-4-oxo-7,8-dihydro-6H-pyrrolo[1,2-a]pyrimidine-6-carboxamide], the “Maximum rate of pressure change (dp/dt max) during left ventricle contraction” value (increasing doses of isoproterenol, FIG. 4A) is reported as “increased”, the “Minimum rate of pressure change (dp/dt min) during left ventricle relaxation” value (increasing doses of isoproterenol, FIG. 4B) is reported as “decreased” and the “Change in heart rate with increasing doses of isoproterenol” value (versus mice not receiving vibegron, FIG. 4C) is reported as “higher increase in heart rate”.
